Data reported in paper PMC9298260, “An Immunomodulatory Peptide Dendrimer Inspired from Glatiramer Acetate” (Angewandte Chemie (International Ed. in English), 2021).

Key:
Assay in all cases: IL-1Ra release from human primary monocytes, immunoassay (ELISA) of supernatants
Assay type in all cases: cell-based
[1] = tested on: IL-1Ra release from human primary monocytes; conditions: primary human monocytes of healthy donors, 25 and 50 μg mL^−1, 48 h
Description: (§1) As an activity screen we focused on interleukin‐1 receptor antagonist (IL‐1Ra), a cytokine released by circulating antigen presenting cells (APC) in response to GA.[15, 35] […] To test our dendrimers, we quantified by immunoassay the release of IL‐1Ra from human primary monocytes of healthy donors, an easily accessible type of APC, stimulated or not by addition of lipopolysaccharide (LPS), which in our hands provided a reliable read‐out.[15] We tested at defined weight/volume (25 and 50 μg mL^−1 compound as typically reported for GA)[15, 35] to account for a possible activity increase with MW as often observed with dendrimers when using molarity. In the initial screen the levels of secreted IL‐1Ra remained below 1 ng mL^−1 for all the smaller test compounds as well as with the linear peptide analogs of GA.
(§2) Figure 2 Cytokine level of IL‐1Ra in supernatants of primary human monocytes of healthy donors treated with peptide dendrimers, evaluated by ELISA (bars, left vertical axis) and mRNA levels (▴, right vertical axis). […] For mRNA levels evaluation, 2×10^6 cells 3 mL^−1 in 6 well plates were incubated with 50 μg mL^−1 dendrimer or GA for 18 h. […]
(§3) Enzyme-linked immunosorbent assay (ELISA)
(§4) Monocytes (5×10^4 cells/200 μL well; 96-well plates) were preincubated for 1 h with or without compounds in RPMI-1640 medium supplemented with 10% heat-inactivated FBS, 50 μg/mL streptomycin, 50 U/mL penicillin, 2 mM L-glutamine, and 5 μg/mL polymyxin B sulfate and then cultured for 48 h in the presence or absence of LPS (100 ng/mL) (2). The production of IL-1Ra was measured in culture supernatants by commercially available enzyme immunoassay according to manufacture protocol.
(§5) Figure S2. Cytokine level of IL-1Ra in supernatants of monocytes for active dendrimers and analogues evaluated by ELISA assay on primary human monocytes of healthy donors. 5×10^4 cells/200 µL in 96 well plates, were incubated with dendrimers or GA as a control for 48 h in presence or absence of LPS (100 ng/mL), in a range of concentrations (50-25 µg/mL) (mean ± SD, n = 2 different experiments). The results are present as the difference between each sample and the non-treated sample to take into account the difference between base line for each donor.
(§6) Figure S3. Cytokine level of IL-1Ra in supernatants of monocytes for active dendrimers and […]
(§7) presence or absence of LPS (100 ng/mL), in a range of concentrations (100-12.5 µg/mL) (mean ± SD, n = 3 different experiments). […]

[2] = tested on: IL-1Ra release from human primary monocytes; set-up: key: +: Ability to induce IL-1Ra on primary monocytes after 48 h of incubation; Ability to induce IL-1Ra on primary monocytes after 48 h of incubation; conditions: for Act. (ability to induce IL-1Ra): primary monocytes, 48 h; for IL-1Ra: ability to induce IL-1Ra on primary monocytes after 48 h of incubation, class + / -
Description: as §1, §2, §3, §4, §5, §6, §7

[3] = tested on: IL-1Ra release from human primary monocytes; set-up: key: +: Ability to induce IL‐1Ra on primary monocytes after 48 h of incubation in the presence of 25–50 μg mL^−1 compound; Ability to induce IL‐1Ra on primary monocytes after 48 h of incubation in the presence of 25–50 μg mL^−1 compound; conditions: for Act. (ability to induce IL-1Ra): Table 1, 48 h, 25–50 μg mL^−1 compound; for IL-1Ra: 48 h
Description: as §1, §2, §3, §4, §5, §6, §7

| Substance | IL-1Ra release activity (in words) [1] | Act. (ability to induce IL-1Ra) ([2]; Table S2 analogs of 1 and 4) | IL-1Ra [2] | Act. (ability to induce IL-1Ra) [3] | IL-1Ra ([3]; supplement s001.csv) | IL-1Ra ([3]; supplement s003.zip SMILES csv) | Act. (ability to induce IL-1Ra) ([2]; Table S1 initial library) |
| --- | --- | --- | --- | --- | --- | --- | --- |
| (AcKA)8(KKKAK)4(KEKA)2KAKEAYCA-NH2 [Ac36] | preserved | + | + | + | + | + |  |
| (ClAcKAA)4(KYYE)2KAY-NH2 [AcCl19] |  |  | - |  |  |  |  |
| (ClAcAKA)8(KYEK)4(KEKA)2KAKY-OH [ClAc3] |  |  | - |  |  |  | - |
| (KYA)4(KAE)2KAEYKCA-NH2 [compound 23] |  |  | - |  |  |  |  |
| (AcAKE)4(KKAY)2KYKY-NH2 [Ac22] |  |  | - |  |  |  |  |
| (KA)8(KKAKE)4(KYKAKA)2KAYKKA-OH [sr-4] | as active as the pure L‐enantiomers | + | + | + | + | + |  |
| (AK)8(KAKAKY)4(KAKEYEY)2KAKEYEY-NH2 [compound 5] |  |  | - | − |  |  | - |
| (FumKA)8(KKKAK)4(KEKA)2KAKEAYCA-NH2 [Fum36] | preserved | + | + | + | + | + |  |
| (AK)4(KAEAKAKE)2KKEYEYCA-NH2 [compound 26] |  |  | - |  |  |  |  |
| (AcKEAKY)4(KKYEA)2KEKAYKA-NH2 [Ac27] |  |  | - |  |  |  |  |
| (ClAcAKE)4(KKAY)2KYKY-NH2 [ClAc22] |  |  | - |  |  |  |  |
| (ClAcK)4(KEAKAKEY)2KAKEYEY-OH [ClAc25] |  |  | - |  |  |  |  |
| (AK)8(KAK)4(KEKA)2KAKEAYCA-NH2 [compound 34] | preserved | + | + | + | + | + |  |
| (AcAKA)4(KEK)2KYEY-OH [Ac11] |  |  | - |  |  |  | - |
| (ClAcKYA)4(KEA)2KKKA-OH [ClAc14] |  |  | - |  |  |  | - |
| (ClAcKAE)4(KAEK)2KYYA-OH [ClAc18] |  |  | - |  |  |  | - |
| (KA)8(KAK)4(KEKA)2KAKEAYCA-NH2)2 (disulfide) [1-1, disulfide bridged dimer of 1] | active | + | + | + | + | + |  |
| (KA)8(KKKAK)4(KEKA)2KAKEAYCA-NH2 [compound 36] | preserved | + | - | + | + |  |  |
| (ClAcKA)4(KAYE)2KK-OH [ClAc6] |  |  | - |  |  |  | - |
| (ClAcAKA)4(KEK)2KYEY-OH [ClAc11] |  |  | - |  |  |  | - |
| (AcKAE)4(KAEK)2KYYA-OH [Ac18] |  |  | - |  |  |  | - |
| (YKAKAKY)4(KEAKAKY)2KAKEYEY-OH [compound 29] |  |  | - |  |  |  |  |
| (AcKAA)4(KYYE)2KAY-NH2 [Ac19] |  |  | - |  |  |  |  |
| (K)4(KAYAEY)2KAKAEYA-NH2 [compound 17] |  |  | - |  |  |  | - |

| Substance | IL-1Ra release activity (in words) [1] | Act. (ability to induce IL-1Ra) ([2]; Table S2 analogs of 1 and 4) | IL-1Ra [2] | Act. (ability to induce IL-1Ra) [3] | IL-1Ra ([3]; supplement s001.csv) | IL-1Ra ([3]; supplement s003.zip SMILES csv) | Act. (ability to induce IL-1Ra) ([2]; Table S1 initial library) |
| --- | --- | --- | --- | --- | --- | --- | --- |
| (AcKA)8(KAK)4(KEKA)2KAKEAYCA-NH2 [Ac1] | abolished |  | - | − |  |  | - |
| (KAA)4(KEY)2KAKEYEYA-NH2 [compound 24] |  |  | - |  |  |  |  |
| (AcAYK)4(KE)2KKAA-OH [Ac9] |  |  | - |  |  |  | - |
| (ClAcKA)4(KEYA)2KKAK-OH [ClAc7] |  |  | - |  |  |  | - |
| (KA)8(KAK)4(KEKA)2KAKEAYC(Fluo)A-NH2 [1Fl, analog of 1 bearing a fluorescein label at the dendrimer core] |  | + | + | + | + | + |  |
| (ClAcAKA)4(KKEY)2KE-OH [ClAc10] |  |  | - |  |  |  | - |
| (ClAcKEAKY)4(KKYEA)2KEKAYKA-NH2 [ClAc27] |  |  | - |  |  |  |  |
| (AcAKA)4(KKEY)2KE-OH [Ac10] |  |  | - |  |  |  | - |
| (AK)4(KAEAKAKE)2KKEYEYC(Coumarin)A-NH2 [26Coum] |  |  | - |  |  |  |  |
| (KAEKAYA)4(KEKYAKA)2KEKYKA-NH2 [compound 2] |  |  | - | − |  |  | - |
| (AcKYA)4(KEA)2KKKA-OH [Ac14] |  |  | - |  |  |  | - |
| (FumAKA)4(KEY)2KYKK-NH2 [Fum15] |  |  | - |  |  |  | - |
| (FumKA)8(KAK)4(KEKA)2KAKEAYCA-NH2 [Fum1] | abolished |  | - |  |  |  | - |
| (FumAKE)4(KAYA)2KKKK-NH2 [Fum16] |  |  | - |  |  |  | - |
| (ClAcK)4(KAYE)2KAKYAEA-NH2) [ClAc13] |  |  | - |  |  |  | - |
| (KAK)4(KEKA)2KAKEAYCA-NH2 [compound 33] |  | - | - | − |  |  |  |
| (KK)8(KAK)4(KEKA)2KAKEAYCA-NH2 [compound 35] | preserved | + | + | + | + | + |  |
| (AcAKA)8(KYEK)4(KEKA)2KAKY-OH [Ac3] |  |  | - |  |  |  | - |
| (AcAKA)4(KEY)2KYKK-NH2 [Ac15] |  |  | - |  |  |  | - |
| (KA)8(KAK)4(KEKA)2KAKEAYCA-NH2 [sr-1] | as active as the pure L‐enantiomers | + | + | + | + | + |  |
| (AcKAK)4(KAEY)2KAEA-OH [Ac20] |  |  | - |  |  |  |  |
| (AcAKE)4(KAYA)2KKKK-NH2 [Ac16] |  |  | - |  |  |  | - |
| (KAA)8(KKAKAK)4(KAAKKY)2KEKAKCA-OH [compound 30] |  |  | - |  |  |  |  |
| (FumKA)8(KKAKE)4(KYKAKA)2KAYKKA-OH [Fum4] | abolished |  | - |  |  |  | - |
